Laboratory results: US6437138B1, “3-pyridyloxymethyl heterocyclic ether compounds useful in controlling chemical synaptic transmission” (priority 1996, dated 2002)

| Compound | melting point |
| --- | --- |
| Cl.Cl.Clc1ccc(-c2cncc(OC[C@H]3CCCN3)c2)cc1 [Example 139, 5-(4-Chlorophenyl)-3-(2-(R)-pyrrolidinylmethoxy)pyridine Dihydrochloride] | 183 to 185 °C |
| CCCCCCC#Cc1cc(OC[C@@H]2CCCN2)cnc1Cl.Cl.Cl [Example 140, 6-Chloro-5-(1-octynyl)-3-(2-(S)-pyrrolidinylmethoxy)pyridine Dihydrochloride] | 133 to 135 °C |
| CN1CCC[C@@H]1COc1cncc(-c2ccc(Cl)cc2)c1.Cl.Cl [Example 141, 5-(4-Chlorophenyl)-3-(1-methyl-2-(R)-pyrrolidinylmethoxy)pyridine Dihydrochloride] | 223 to 225 °C |
| CCCCCCC#Cc1cncc(OC[C@H]2CCCN2C)c1.Cl.Cl [Example 145, 3-(1-Methyl-2-(R)-pyrrolidinylmethoxy)-5-(1-octynyl)pyridine Dihydrochloride] | 102 to 105 °C |
| CCCCCCC#Cc1cc(OC[C@@H]2CCCN2C)cnc1Cl.Cl.Cl [Example 146, 6-Chloro-3-(1-methyl-2-(S)-pyrrolidinylmethoxy)-5-(1-octynyl)pyridine Dihydrochloride] | 223 to 225 °C |
| CN1CCC[C@H]1COc1cnc(Cl)c(-c2cccnc2)c1.Cl.Cl [Example 147, 6-Chloro-3-(1-methyl-2-(S)-pyrrolidinylmethoxy)-5-(3-pyridyl)pyridine Dihydrochloride] | 108 to 110 °C |
| CN1CCC[C@H]1COc1cnc(Cl)c(C=CC=CC(C)(C)C)c1.Cl.Cl [Example 149, 6-Chloro-5-(5,5-dimethyl-1,3-hexadienyl)-3-(1-methyl-2-(S)-pyrrolidinylmethoxy)pyridine Dihydrochloride] | 220 °C |
| Cl.Cl.Clc1ccc(-c2cc(OC[C@@H]3CCCN3)cnc2Cl)cc1 [Example 150, 6-Chloro-5-(4-chlorophenyl)-3-(2-(S)-pyrrolidinylmethoxy)pyridine Dihydrochloride] | 86 to 89 °C |
| CN1CCC[C@H]1COc1cnc(Cl)c(-c2ccc(Cl)cc2)c1.Cl.Cl [Example 151, 6-Chloro-5-(4-chlorophenyl)-3-(1-methyl-2-(S)-pyrrolidinylmethoxy)pyridine Dihydrochloride] | 183 to 185 °C |
| CN1CCC[C@H]1COc1cnc(Cl)c(-c2cccs2)c1.Cl.Cl [Example 153, 6-Chloro-3-(1-methyl-2-(S)-pyrrolidinylmethoxy)-5-(2-thienyl)pyridine Dihydrochloride] | 160 to 163 °C |
| Cl.Nc1cccc(-c2cncc(OC[C@@H]3CCCN3)c2)c1 [Example 158, 5-(3-Aminophenyl)-3-(2-(S)-pyrrolidinylmethoxy)pyridine Hydrochlorid] | 68 to 70 °C |
| CC(C)(C)C=CC=Cc1cncc(OC[C@@H]2CCCN2)c1.Cl.Cl [Example 160, 5-(5,5-Dimethyl-1,3-hexadienyl)3-(2-(S)-pyrrolidinylmethoxy)pyridine Dihydrochloride] | 92 to 94 °C |
| C=Cc1cncc(OC[C@@H]2CCN2)c1.Cl.Cl [Example 162, 3-(2-(S)-Azetidinylmethoxy)-5-ethenylpyridine Dihydrochloride] | 88 to 90 °C |
| C=Cc1cncc(OC[C@@H]2CCCN2)c1.Cl.Cl [Example 164, 5-Ethenyl-3-(2-(S)-pyrrolidinylmethoxy)pyridine Dihydrochloride] | 97 °C (dec.) |
| C=Cc1cc(OC[C@H]2CCCN2)cnc1Cl.Cl [Example 167, 6-Chloro-5-ethenyl-3-(2-(R)-pyrrolidinylmethoxy)pyridine Hydrochloride] | 182 to 184 °C |
| C=Cc1cc(OC[C@H]2CCCN2C)cnc1Cl.Cl [Example 168, 6-Chloro-5-ethenyl-3-(1-methyl-2-(R)-pyrrolidinylmethoxy)pyridine Hydrochloride] | 173 to 175 °C |
| Cl.Clc1ncc(OC[C@@H]2CCCN2)cc1-c1cncnc1 [Example 169, 6-Chloro-5-(5-pyrimidinyl)-3-(2-(S)-pyrrolidinylmethoxy)pyridine Hydrochloride] | 230 °C (dec.) |
| CN1CC[C@H]1COc1cnc(Cl)c(-c2cncnc2)c1.Cl [Example 170, 6-Chloro-3-(1-methyl-2-(S)-azetidinylmethoxy)-5-(5-pyrimidinyl)pyridine Hydrochloride] | 143 to 144 °C |
| Cl.Cl.c1ncc(-c2cncc(OC[C@@H]3CCN3)c2)cn1 [Example 171, 3-(2-(S)-Azetidinylmethoxy)-5-(5-pyrimidinyl)pyridine Dihydrochloride] | 185 °C (dec.) |
| Cl.Cl.Clc1ncc(OC[C@@H]2CCN2)cc1-c1cncnc1 [Example 172, 3-(2-(S)-Azetidinylmethoxy)-6-chloro-5-(5-pyrimidinyl)pyridine Dihydrochloride] | 144 °C (dec.) |

| Compound | melting point |
| --- | --- |
| Cl.Clc1ncc(OC[C@H]2CCCN2)cc1-c1cncnc1 [Example 173, 6-Chloro-5-(5-pyrimidinyl)-3-(2-(R)-pyrrolidinylmethoxy)pyridine Hydrochloride] | 210 °C (dec.) |
| Cl.Cl.Cl.c1ncc(-c2cncc(OC[C@@H]3CCCN3)c2)cn1 [Example 174, 5-(5-Pyrimidinyl)-3-(2-(S)-pyrrolidinylmethoxy)pyridine Trihydrochloride] | 110 to 112 °C |
| C#Cc1cc(OC[C@@H]2CCN2)cnc1Cl.Cl [Example 175, 3-(2-(S)-Azetidinylmethoxy)-6-chloro-5-ethynylpyridine Hydrochloride] | 90 °C (dec.) |
| C=CCc1cncc(OC[C@@H]2CCCN2C)c1.Cl.Cl [Example 177, 5-Allyl-3-(1-methyl-2-(S)-pyrrolidinylmethoxy)pyridine Dihydrochloride] | 65 to 67 °C |
| C=CCc1cc(OC[C@@H]2CCN2)cnc1Cl.Cl [Example 178, 5-Allyl-3-(2-(S)-azetidinylmethoxy)-6-chloropyridine Hydrochloride] | 90 to 92 °C |
| C=CCc1cc(OC[C@@H]2CCN2C)cnc1Cl.Cl [Example 179, 5-Allyl-3-(1-methyl-2-(S)-azetidinylmethoxy)-6-chloropyridine Hydrochloride] | 109 to 111 °C |
| CN1CCC[C@H]1COc1cnc(Cl)c(-c2cncnc2)c1.Cl [Example 182, 6-Chloro-3-(1-methyl-2-(S)-pyrrolidinylmethoxy)-5-(5-pyrimidinyl)pyridine Hydrochloride] | 200 to 202 °C |
| C=CCc1cc(OC[C@@H]2CCCN2C)cnc1Cl.Cl [Example 184, 5-Allyl-6-chloro-3-(1-methyl-2-(S)-pyrrolidinylmethoxy)pyridine Hydrochloride] | 150 to 152 °C |
| C=CCc1cc(OC[C@H]2CCCN2)cnc1Cl.Cl [Example 185, 5-Allyl-6-chloro-3-(2-(R)-pyrrolidinylmethoxy)pyridine Hydrochloride] | 90 to 92 °C |
| Cl.Clc1ncc(OC[C@H]2CCN2)cc1-c1ccccc1 [Example 186, 3-(2-(R)-Azetidinylmethoxy)-6-chloro-5-phenylpyridine Hydrochloride] | 143 to 145 °C |
| C=Cc1ncc(OC[C@@H]2CCCN2)cc1C.Cl [Example 187, 6-Ethenyl-5-methyl-3-(2-(S)-pyrrolidinylmethoxy)pyridine Hydrochloride] | 168 to 170 °C |
| C=Cc1ncc(OC[C@@H]2CCCN2C)cc1C.Cl [Example 188, 6-Ethenyl-5-methyl-3-(1-methyl-2-(S)-pyrrolidinylmethoxy)pyridine Hydrochloride] | 50 °C (dec.) |
| CN1CC[C@@H]1COc1cnc(Cl)c(-c2ccccc2)c1.Cl [Example 189, 6-Chloro-3-(1-methyl-2-(R)-azetidinylmethoxy)-5-phenylpyridine Hydrochloride] | 173 to 175 °C |
| C#Cc1cc(OC[C@H]2CCN2)cnc1Cl.Cl [Example 190, 3-(2-(R)-Azetidinylmethoxy)-6-chloro-5-ethynylpyridine Hydrochloride] | 155 to 157 °C |
| C=Cc1cc(OC[C@@H]2CCCN2C)cnc1Cl.Cl [Example 192, 6-Chloro-5-ethenyl-3-(1-methyl-2-(S)-pyrrolidinylmethoxy)pyridine Hydrochloride] | 182 to 184 °C |
| COCCOc1cncc(OC[C@@H]2CCCN2)c1.Cl.Cl [Example 197, 5-Methoxyethoxy-3-(2-(S)-pyrrolidinylmethoxy)pyridine Dihydrochloride] | 182 to 184 °C |
| Cl.Cl.c1ccc(COc2cncc(OC[C@@H]3CCN3)c2)cc1 [Example 199, 3-(2-(S)-Azetidinylmethoxy)-5-benzyloxypyridine Dihydrochloride] | 172 to 174 °C |
| CN1CC[C@H]1COc1cncc(OCc2ccccc2)c1.Cl [Example 200, 5-Benzyloxy-3-(1-methyl-2-(S)-azetidinylmethoxy)pyridine Hydrochloride] | 132 to 134 °C |
| C=Cc1ccc(OC[C@@H]2CCN2)cn1.Cl.Cl [Example 201, 3-(2-(S)-Azetidinylmethoxy)-6-ethenylpyridine Dihydrochloride] | 102 to 104 °C |
| C=Cc1ccc(OC[C@@H]2CCN2C)cn1.Cl.Cl [Example 202, 6-Ethenyl-3-(1-methyl-2-(S)-azetidinylmethoxy)pyridine Dihydrochloride] | 105 to 107 °C |
